#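 Interpolation was linear, between the two tested concentrations surrounding the appropriate level; five concentrations were tested over 48 hours in 96-well plates. At the GI50, growth is halved.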 Active and inactive are the calls of the source. Rule as the data show it: active = GI50 up to about 1.1 µM and inactive = higher.
# How the values were obtained:
# Assay in all cases: inhibition of tumour cell growth, NCI panel, 48 h
# SF-268 = system: SF-268
# KM12 = system: KM12
# RPMI-8226 = system: RPMI-8226
# OVCAR-4 = system: OVCAR-4
# LOX IMVI = system: LOX IMVI
# SK-MEL-2 = system: SK-MEL-2
# MCF7 = system: MCF7
# UO-31 = system: UO-31
# HL-60 = system: HL-60
# SW-620 = system: SW-620
# NCI/ADR-RES = system: NCI/ADR-RES
# U-251 = system: U-251
# NCI-H23 = system: NCI-H23
# SF-539 = system: SF-539
# UACC-62 = system: UACC-62
# NCI-H460 = system: NCI-H460
# PC-3 = system: PC-3
# Hs-578T = system: Hs-578T
# 786-0 = system: 786-0
# OVCAR-8 = system: OVCAR-8
# A498 = system: A498
# HCC 2998 = system: HCC 2998
# MDA-MB-435 = system: MDA-MB-435
# Malme-3M = system: Malme-3M
# CCRF-CEM = system: CCRF-CEM
# MDA-MB-231 = system: MDA-MB-231
# T47D = system: T47D
# SF-295 = system: SF-295
# SNB-19 = system: SNB-19
# NCI-H226 = system: NCI-H226
# OVCAR-3 = system: OVCAR-3
# RXF 393 = system: RXF 393
# SNB-75 = system: SNB-75
# UACC-257 = system: UACC-257
# NCI-H522 = system: NCI-H522
# SK-MEL-28 = system: SK-MEL-28
# COLO 205 = system: COLO 205
# MDA-N = system: MDA-N
# CAKI-1 = system: CAKI-1
# A549 = system: A549
# SK-MEL-5 = system: SK-MEL-5
# TK-10 = system: TK-10
# HCT-116 = system: HCT-116
# M14 = system: M14
# K562 = system: K562
# SN12C = system: SN12C
# ACHN = system: ACHN
# HOP-62 = system: HOP-62
# IGROV-1 = system: IGROV-1
# HCT-15 = system: HCT-15
# BT-549 = system: BT-549
# DU-145 = system: DU-145
# SK-OV-3 = system: SK-OV-3
smiles,measurement,setting,value
Nc1c(OCC(=O)O)ccc2cc(S(=O)(=O)O)ccc12,GI50,SF-268,> 100 µM (inactive)
same,GI50,KM12,> 100 µM (inactive)
same,GI50,RPMI-8226,> 100 µM (inactive)
same,GI50,OVCAR-4,> 100 µM (inactive)
same,GI50,LOX IMVI,> 100 µM (inactive)
same,GI50,SK-MEL-2,> 100 µM (inactive)
same,GI50,MCF7,> 100 µM (inactive)
same,GI50,UO-31,> 100 µM (inactive)
same,GI50,HL-60,> 100 µM (inactive)
same,GI50,SW-620,> 100 µM (inactive)
same,GI50,NCI/ADR-RES,> 100 µM (inactive)
same,GI50,U-251,> 100 µM (inactive)
same,GI50,NCI-H23,> 100 µM (inactive)
same,GI50,SF-539,> 100 µM (inactive)
same,GI50,UACC-62,> 100 µM (inactive)
same,GI50,NCI-H460,> 100 µM (inactive)
same,GI50,PC-3,> 100 µM (inactive)
same,GI50,Hs-578T,> 100 µM (inactive)
same,GI50,786-0,> 100 µM (inactive)
same,GI50,OVCAR-8,> 100 µM (inactive)
same,GI50,A498,> 100 µM (inactive)
same,GI50,HCC 2998,> 100 µM (inactive)
same,GI50,MDA-MB-435,> 100 µM (inactive)
same,GI50,Malme-3M,> 100 µM (inactive)
same,GI50,CCRF-CEM,> 100 µM (inactive)
same,GI50,MDA-MB-231,> 100 µM (inactive)
same,GI50,T47D,> 100 µM (inactive)
same,GI50,SF-295,> 100 µM (inactive)
same,GI50,SNB-19,> 100 µM (inactive)
same,GI50,NCI-H226,> 100 µM (inactive)
same,GI50,OVCAR-3,> 100 µM (inactive)
same,GI50,RXF 393,> 100 µM (inactive)
same,GI50,SNB-75,> 100 µM (inactive)
same,GI50,UACC-257,> 100 µM (inactive)
same,GI50,NCI-H522,> 100 µM (inactive)
same,GI50,SK-MEL-28,> 100 µM (inactive)
same,GI50,COLO 205,> 100 µM (inactive)
same,GI50,MDA-N,> 100 µM (inactive)
same,GI50,CAKI-1,> 100 µM (inactive)
same,GI50,A549,> 100 µM (inactive)
same,GI50,SK-MEL-5,> 100 µM (inactive)
same,GI50,TK-10,> 100 µM (inactive)
same,GI50,HCT-116,> 100 µM (inactive)
same,GI50,M14,> 100 µM (inactive)
same,GI50,K562,> 100 µM (inactive)
same,GI50,SN12C,> 100 µM (inactive)
same,GI50,ACHN,> 100 µM (inactive)
same,GI50,HOP-62,> 100 µM (inactive)
same,GI50,IGROV-1,> 100 µM (inactive)
same,GI50,HCT-15,> 100 µM
same,GI50,BT-549,> 100 µM (inactive)
same,GI50,DU-145,> 100 µM (inactive)
same,GI50,SK-OV-3,> 100 µM (inactive)

# From ChEMBL document CHEMBL1201862, “PubChem BioAssay data set” (2004)
